Among the data in patent publication US12540164B2, “Peptides for treatment and prevention of nonalcoholic fatty liver disease and fibrosis” (UNIVERSITE DE STRASBOURG, priority 2017, dated 2026) are hepatic ceramides content values, retold here.

Ends that are not written are not given here.

For this test, the system named is ceramides. The test can be described thus: Hepatic ceramides content and profile (lipidomics). The note with it: 3 injections, one per week, in subcutaneous adipose tissue. It counts as in vivo, mice. From the text: ADPIF adipose tissue injection has proven to be unexpectedly liver protective relative to a specific decrease in expression levels of FATP2 in the adipose tissue and an associated profile of the FATPs and FFARs in the muscles and liver. As these changes impact circulating population of the different lipids. Ceramides are a group of biological active lipids known to be involved in NAFLD. We measured and determined the effect of ADPIF injections on the ceramides profile following 3 injections of ADPIF at a frequency of one injection per week in the subcutaneous adipose tissue.
For the lipid composition in the different tissues and plasma, all samples were flashed frozen at the time of sampling, immediately after sacrifice, and were sent to the lipidomic core facility of Dijon, (Plateforme de Lipidomique-uBorgogne INSERM UMR866/Labex LipSTIC).

On to “VECTTREKEVLASLDKAAFLTQLHS (not fully specified (bridges)) [ADPIF, R and S carry the stapling, preferably 2-(7-octenyl)arginine and 2-(4-pentenyl)serine]”, for which the hepatic ceramides content entry is “globally induces a decrease”.
